Positions of bridges follow the written chain, without caps; N, C: chain ends. No end group written: not given here.
Key:
rat SLC-1 [1] = target: T1, rat SLC-1 (Rattus norvegicus, UniProt P97639); test: GTPγS binding activity to rat SLC-1-expression CHO cell membrane fraction (Example 9); assay type: biochemical
T1 construct: expressed in transfected cells; host or cells: CHO dhfr- cells, plasmid pAKK0-SLC-1, mainly clone #44
Procedure: First, preparation of the membrane fraction is described. To 1×10^8 CHO/SLC-1 cells was added 10 ml of a homogenate buffer (10 mM NaHCO3, 5 mM EDTA, 0.5 mM PMSF, 1 μg/ml pepstatin, 4 μg/ml E64, 20 μg/ml leupeptin), followed by cell disruption with a polytron (12,000 rpm, 1 min.). The disrupted cells were then centrifuged (1,000 g, 15 mins.) to give the supernatant. Next, the supernatant was subjected to ultracentrifugation (Beckman type 30 rotor, 30,000 rpm, 1 hour). The resulting precipitate was used as a rat SLC-1-expression CHO cell membrane.
The GTPyS binding activity was assayed as follows. The rat SLC-1-expression CHO cell membrane fraction was diluted with a buffer for membrane dilution (50 mM Tris-hydrochloride buffer (pH 7.4), 5 mM MgCl2, 150 mM NaCl, 1 μM GDP) to make a cell membrane fraction solution for assay having a protein concentration of […]. […] The resulting solution mixture was kept at 25° C. for an hour. The mixture was filtrated through a filter. After washing twice with 1.5 ml of a washing buffer (50 mM Tris-hydrochloride buffer (pH 7.4), 5 mM MgCl2, 1 mM EDTA, 0.1% BSA), radioactivity of the filter was measured using a liquid scintillation counter.

human SLC-1 [2] = target: T2, human SLC-1 (Homo sapiens, UniProt Q99705); test: Arachidonic acid metabolite release activity on human SLC-1-expression CHO cells; assay type: cell-based; conditions: human SLC-1 expression cells (CHO/hSLC-1(S) or CHO/hSLC-1(L))
T2 construct: expressed in transfected cells; host or cells: CHO dhfr- cells, plasmid pAKK0-hSLC-1(S) or pAKK0-hSLC-1(L)
Procedure: The CHO/hSLC-1(S) strain or the CHO/hSLC-1(L) strain, which was human SLC-1-expression CHO cells selected in EXAMPLE 13, were inoculated on a 24-well plate in 5×10^4 cells/well. After incubation for 24 hours, [^3H] arachidonic acid was added in 0.25 μCi/well. Sixteen hours after the addition of [^3H] arachidonic acid, the cells were washed with Hanks' balanced salt solution (pH 7.4) containing 0.05% BSA and 20 mM HEPES. […] Hereinafter, Hanks' balanced salt solution (pH7.4) containing 0.05% BSA and 20 mM HEPES is referred to as a reaction buffer. After incubating at 37° C. for 60 minutes, 400 μl of the reaction solution was charged in a scintillator and the amount of [^3H] arachidonic acid metabolites released into the reaction solution was measured using a scintillation counter.

human SLC-1 [3] = target: T2, human SLC-1; test: GTPγS binding activity using human SLC-1-expression CHO cell membrane fraction (Example 16); assay type: biochemical
Procedure: A human SLC-1-expression CHO cell membrane fraction was prepared by the following procedure. Human SLC-1-expression CHO cells (1×10^8 cells) were suspended in phosphate buffered saline (pH 7.4) supplemented with 5 mM EDTA (ethylene diamine tetra acetic acid) followed by centrifugation. after 10 ml of a homogenate buffer (10 mM NaHCO3, 5 mM EDTA, pH 7.5) was added to the cell pellets, the mixture was homogenized with a polytron homogenizer. the homogenate was then centrifuged at 400×g for 15 minutes. the resulting supernatant was further centrifuged at 100,000×g for an hour to give membrane fraction precipitates. the precipitates were suspended in 2 ml of an assay buffer (50 mM Tris-HCl (pH 7.5), 1 mM EDTA, 0.1% BSA (bovine serum albumin), 10 mM MgCl2, 100 mM NaCl, 1 mM GDP (guanosine 5′-diphosphate), 0.25 mM PMSF (phenylmethylsulfonyl fluoride), 1 μg/ml pepstatin, 20 μg/ml leupeptin, 10 μg/ml phosphoramidon] and the suspension was centrifuged at 100,000×g for an hour. the cell membrane recovered as precipitates was resuspended in 20 ml of the assay buffer. after dispensing, the suspension was stored at −80° C., which may be thawed every time at use.

rat SLC-1 [4] = target: T1, rat SLC-1; test: Arachidonic acid metabolite release activity on rat SLC-1-expression CHO cells; assay type: cell-based
Procedure: The CHO/SLC-1 cells selected in EXAMPLE 4 were inoculated on a 24-well plate in 5×10^4 cells/well. After incubation for 24 hours, [^3H] arachidonic acid was added to each well in 0.25 μCi/well. Sixteen hours after the addition of [^3H] arachidonic acid, the cells were washed with Hanks' balanced salt solution (pH7.4) containing 0.05% BSA and 20 mM HEPES. […] Hereinafter Hanks' balanced salt solution (pH 7.4) containing 0.05% BSA and 20 mM HEPES is referred to as a reaction buffer. After incubating at 37° C. for 60 minutes, 400 μl of the reaction solution was charged in a scintillator and the amount of [^3H]arachidonic acid metabolites released into the reaction solution was measured using a scintillation counter.

rat SLC-1 [5] = target: T1, rat SLC-1; test: cAMP synthesis inhibitory activity on rat SLC-1-expression CHO cells (forskolin-stimulated, cAMP EIA); assay type: cell-based; conditions: 2 μM forskolin
Procedure: The CHO/SLC-1 cells prepared in EXAMPLE 4 and mock CHO cells were inoculated on a 24-well plate in 5×10^4 cells/well. After incubation for 48 hours, the cells were washed with Hanks' balanced salt solution (pH 7.4) supplemented with 0.2 mM 3-isobutylmethylxanthine, 0.05% BSA and 20 mM HEPES (hereinafter Hanks' balanced salt solution (pH. 7.4) supplemented with 0.2 mM 3-isobutylmethylxanthine, 0.05% BSA and 20 mM HEPES is referred to as a reaction buffer). Thereafter, 0.5 ml of the reaction buffer was added to the cells, which was kept warm in the medium for 30 minutes. The reaction buffer was removed and 0.25 ml of a fresh reaction buffer was added to the cells. Then, 0.25 ml of the reaction buffer containing the HPLC fraction and 2 μM for skolin was added to the cells followed by reacting at 37° C. for 24 minutes. By adding 100 μl of 20% perchloric acid, the reaction was terminated. The reaction mixture was then allowed to stand on ice for an hour to extract intracellular cAMP. The amount of cAMP in the extract was measured using a cAMP EIA kit (Amersham Pharmacia Biotech). As a result, the cAMP synthesis inhibitory activity specific to the CHO/SLC-1 cells was detected in fractions #33, #34 and #35 (FIG. 1). In FIG. 1, taking as 100% the amount obtained by subtracting the intracellular cAMP amount when adding the reaction buffer from the intracellular cAMP amount when adding the forskolin-containing reaction buffer, the cAMP synthesis inhibitory activity was expressed by % in terms of the intracellular cAMP amount obtained by subtracting the intracellular cAMP amount when adding the reaction buffer from the intracellular cAMP amount when adding the HPLC fraction (a 1 μl aliquot of each fraction diluted to 100-fold with DMSO was added).
The CHO/SLC-1 cells selected in EXAMPLE 4 were inoculated on a 24-well plate in 5×10^4 cells/well followed by cultivation for 48 hours. […] The amount of cAMP in the extract was measured using cAMP EIA kit (Amersham Pharmacia Biotech).

human SLC-1 [6] = target: T2, human SLC-1; test: cAMP synthesis inhibitory activity on human SLC-1-expression CHO cells; assay type: cell-based; conditions: human SLC-1 expression cells (CHO/hSLC-1(S) or CHO/hSLC-1(L)), 2 μM forskolin
Procedure: The CHO/hSLC-1(S) strain or the CHO/hSLC-1(L) strain, which was human SLC-1-expression CHO cells selected in EXAMPLE 13, was inoculated on a 24-well plate in 5×10^4 cells/well followed by cultivation for 48 hours. The cells were then washed with Hanks' balanced salt solution (pH 7.4) containing 0.2 mM 3-isobutylmethylxanthine, 0.05% BSA and 20 mM HEPES (hereinafter Hanks' balanced salt solution (pH 7.4) containing 0.2 mM 3-isobutylmethylxanthine, 0.05% BSA and 20 mM HEPES is referred to as a reaction buffer). Subsequently, 0.5 ml of the reaction buffer was added to the cells, which was maintained in the medium for 30 minutes. The reaction buffer was removed and 0.25 ml of a fresh reaction buffer was added to the cells. […] By adding 100 μl of 20% perchloric acid, the reaction was terminated. Next, the reaction mixture was allowed to stand on ice for an hour to extract intracellular cAMP. The amount of cAMP in the extract was measured using cAMP EIA kit (Amersham Pharmacia Biotech).

human SLC-1 [7] = target: T2, human SLC-1; test: Receptor binding test using [125I]-labeled MCH(4-19) and human SLC-1-expression CHO cell membrane fraction; conditions: various membrane fraction concentrations; FIG. 9
Procedure: The cell membrane fraction prepared from human SLC-1-expression CHO cells according to EXAMPLE 16 was diluted with an assay buffer (25 mM Tris-HCl, 1 mM EDTA (ethylene diamine tetra acetic acid), 0.1% BSA (bovine serum albumin), 0.25 mM PMSF (phenylmethylsulfonyl fluoride), 1 μg/ml pepstatin, 20 μg/ml leupeptin, 10 μg/ml phosphoramidon, pH 7.5) in various concentration.

T2 sequence (Q99705 with tags, fused parts or gaps): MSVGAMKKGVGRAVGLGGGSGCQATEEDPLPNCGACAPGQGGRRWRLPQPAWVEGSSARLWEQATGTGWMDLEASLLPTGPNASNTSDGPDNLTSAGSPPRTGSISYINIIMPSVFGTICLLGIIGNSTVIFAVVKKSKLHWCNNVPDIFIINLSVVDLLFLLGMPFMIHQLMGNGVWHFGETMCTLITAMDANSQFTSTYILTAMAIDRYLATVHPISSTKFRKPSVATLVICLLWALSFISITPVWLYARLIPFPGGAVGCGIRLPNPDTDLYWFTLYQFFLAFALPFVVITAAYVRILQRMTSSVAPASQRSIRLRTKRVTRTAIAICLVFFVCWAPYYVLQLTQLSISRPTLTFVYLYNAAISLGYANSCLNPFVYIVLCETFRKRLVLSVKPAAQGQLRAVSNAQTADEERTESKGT
T1 sequence (P97639 whole entry): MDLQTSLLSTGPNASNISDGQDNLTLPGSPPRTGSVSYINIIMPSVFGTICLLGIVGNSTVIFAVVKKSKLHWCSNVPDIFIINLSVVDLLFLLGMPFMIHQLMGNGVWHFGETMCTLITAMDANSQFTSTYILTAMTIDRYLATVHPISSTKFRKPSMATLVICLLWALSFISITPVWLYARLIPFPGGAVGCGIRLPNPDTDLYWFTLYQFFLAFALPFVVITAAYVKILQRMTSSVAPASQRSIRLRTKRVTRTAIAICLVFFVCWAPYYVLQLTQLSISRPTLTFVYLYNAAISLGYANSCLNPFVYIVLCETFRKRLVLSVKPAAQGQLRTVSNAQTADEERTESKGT

Row | amount of [35S]-GTPγS bound to the membrane fraction, dose dependence (rat SLC-1 [1]) | EC50 (rat SLC-1 [1]; 25° C. 1 hour, read-out: concentration inducing 50% binding of [35S]-GTPγS) | amount of [35S]-GTPγS bound, dose dependence (human SLC-1 [3]) | concentration at which apparent release of arachidonic acid metabolites occurred (rat SLC-1 [4]; 37° C. 60 minutes) | arachidonic acid metabolite release, dose dependence (rat SLC-1 [4]; FIG. 6) | concentration at which the amount of intracellular cAMP was obviously reduced (rat SLC-1 [5]) | cAMP synthesis (production) inhibitory activity, dose dependence (rat SLC-1 [5]; FIG. 5) | amount of intracellular cAMP, dose dependence (human SLC-1 [6]) | Compound | arachidonic acid metabolite release activity, dose dependence (human SLC-1 [2]) | cAMP synthesis (production) inhibitory activity, dose dependence (rat SLC-1 [5]; FIG. 5, listed as rat MCH) | specific binding (SB) to the cell membrane fraction (human SLC-1 [7])
1 | dose-dependently increased | ~0.5 nM | increased dose-dependently | 3 nM | dose-dependently released | 0.1 nM | decreased dose-dependently | decreased dose-dependently | CSCC[C@@H]1NC(=O)[C@@H](NC(=O)[C@H](CCCNC(=N)N)NC(=O)[C@H](CC(C)C)NC(=O)[C@H](CCSC)NC(=O)[C@H](CC(=O)O)NC(=O)[C@H](Cc2ccccc2)NC(=O)[C@@H](N)CC(=O)O)CSSC[C@@H](C(=O)N[C@@H](Cc2c[nH]c3ccccc23)C(=O)N[C@@H](CCC(N)=O)C(=O)N[C@H](C(=O)O)C(C)C)NC(=O)[C@@H]2CCCN2C(=O)[C@H](CCCNC(=N)N)NC(=O)[C@H](Cc2ccc(O)cc2)NC(=O)[C@H](C(C)C)NC(=O)[C@H](CCCNC(=N)N)NC(=O)CNC(=O)[C@H](CC(C)C)NC1=O [MCH] | showed the arachidonic acid metabolite release activity dose-dependently | showed the inhibitory activity dose-dependently | –
2 | – | – | – | – | – | – | – | – | [^125I]-[N-(3-(4-Hydroxy-3-iodophenyl)propionyl)-Met^4]-MC H(4-19) ({3‑(4-hydroxy-3-(125I)iodophenyl)propionyl}-MLRCMLGRVYRPCWQV; disulfide 4-13) [[^125I]-labeled MCH(4-19)] | – | – | recognized dependent on the concentration of the membrane fraction

Source: US6991908B1, “Antiobestic agents methods for screening antiobestic agents and kits comprising same” (Takeda Chemical Industries, Ltd., priority 1998, dated 2006)
